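96-well plates; 48 h exposure; 5 concentrations. Endpoints by linear interpolation between flanking doses. Not reached: highest tested concentration assigned. GI50 is the concentration that inhibits growth by half.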 Active and inactive are the calls of the source. No stated cut-off is given here; in the data, active = GI50 up to about 1.1 µM and inactive = higher.

Common to all, as to experiment: NCI tumour cell line growth inhibition, 48 h
The subject of experiment [1] is NCI-H23.
The subject of experiment [2] is OVCAR-8.
For experiment [3], the system named is HT-29.
In experiment [4] the test system is MDA-N.
The test system of experiment [5] is DU-145.
The subject of experiment [6] is TK-10.
Experiment [7] concerns EKVX.
For experiment [8], the system named is KM12.
Experiment [9] deals with COLO 205.
The subject of experiment [10] is HCT-116.
Experiment [11] concerns A549.
For experiment [12], the system named is OVCAR-5.
The test system of experiment [13] is UACC-62.
For experiment [14], the system named is OVCAR-3.
For experiment [15], the system named is OVCAR-4.
The test system of experiment [16] is 786-0.
Experiment [17] has as its system SK-OV-3.
The subject of experiment [18] is HL-60.
For experiment [19], the system named is HOP-92.
Experiment [20] has as its system NCI/ADR-RES.

Regarding `O=[N+]([O-])c1cccc2nccc(NCCCO)c12`, the GI50 was 12.5 µM (inactive) in [1]; 14.5 µM (inactive) in experiment [2]; 6.89 µM (inactive) in experiment [3]; 9.66 µM (inactive) in experiment [4]; 16.8 µM (inactive) in experiment [5]; 8.79 µM (inactive) in [6]. Besides, the GI50 in experiment [7] is 6.79 µM (inactive); in experiment [8] it was 10.8 µM (inactive); in experiment [9] it was 3.55 µM (inactive); in experiment [10] it was 13 µM (inactive); in experiment [11], 16.5 µM (inactive); in experiment [12], 20.1 µM (inactive). Also, the GI50 in experiment [13] is 8.57 µM (inactive); in experiment [14], 14.6 µM (inactive); in experiment [15], 11 µM (inactive); in [16] it was 17.7 µM (inactive); in [17] it was 23.3 µM (inactive); in experiment [18], 11.6 µM (inactive).

On to `O=C(O)CCC(NC(=O)c1ccc(Nc2cnc3cc(C(F)(F)F)ccc3n2)cc1)C(=O)O` (configuration not stated), for which the GI50 in experiment [1], in experiment [2], in [19], in [3], in experiment [7] and in [8] was > 100 µM (inactive) throughout. Also, the GI50 in experiment [20], in [9], in experiment [10], in [11], in experiment [12] and in experiment [13] was > 100 µM (inactive) each time. Moreover, the GI50 in experiment [14], in experiment [15], in experiment [17] and in experiment [18] was > 100 µM (inactive) in each case.

Turning to `COC(=O)C(C(=O)C(=O)NC1Nc2ccc(C)cc2S1)c1nc2ccc(Cl)cc2nc1O` (configuration not stated), the GI50 in [1] was > 100 µM (inactive); in experiment [2], > 100 µM (inactive); in experiment [19], 82.4 µM (inactive); in experiment [3], > 100 µM (inactive); in experiment [4], > 100 µM (inactive); in experiment [6], > 100 µM (inactive). For the same molecule, the GI50 in [7] was 60.1 µM (inactive); in experiment [8] it was > 100 µM (inactive); in experiment [20], > 100 µM (inactive); in [10], > 100 µM (inactive); in [11] it was > 100 µM (inactive); in experiment [12] it was > 100 µM (inactive). The GI50 in experiment [13] is > 100 µM (inactive); in experiment [14], > 100 µM (inactive); in experiment [15], 74 µM (inactive); in experiment [16], > 100 µM (inactive); in experiment [17], > 100 µM (inactive); in [18], > 100 µM (inactive).

`COc1ccc(-c2nc(-c3cc4ccccc4oc3=O)cs2)cc1`: the GI50 in experiment [2] was 23.2 µM (inactive); in experiment [19], 60.8 µM (inactive); in experiment [3], 95.9 µM (inactive); in [5] it was > 100 µM (inactive); in experiment [6], 70.6 µM (inactive); in experiment [7], > 100 µM (inactive). Besides, the GI50 in experiment [8] was > 100 µM (inactive); in experiment [20] it was 47.9 µM (inactive); in experiment [9] it was > 100 µM (inactive); in experiment [10], 37.8 µM (inactive); in experiment [11] it was 85.7 µM (inactive); in experiment [12] it was > 100 µM (inactive). For the same molecule, the GI50 in [13] is > 100 µM (inactive); in experiment [15], > 100 µM (inactive); in [16], 31.3 µM (inactive); in experiment [17], 29.6 µM (inactive); in [18], > 100 µM (inactive).

Regarding `C=CCNC(=O)C(C)C1CCC2(C)C=CC(=O)C(C)=C2C1O` (configuration not stated), the GI50 in [1], in experiment [2], in experiment [19], in experiment [3], in [7] and in [8] was > 100 µM (inactive) in each case. For the same molecule, the GI50 in [20], in experiment [9], in experiment [10], in [11], in experiment [12] and in experiment [13] was > 100 µM (inactive) each time. Moreover, the GI50 in experiment [14], in experiment [15], in [17] and in [18] was > 100 µM (inactive) each time.

Take `COC(=O)[C@@H](N1C(=O)c2ccccc2C1=O)C1(C)CC(Cl)=NO1` (some centres not stated): the GI50 in [1] was 48.3 µM (inactive); in experiment [2], 19.1 µM (inactive); in experiment [3], > 100 µM (inactive); in experiment [4] it was > 100 µM (inactive); in experiment [5], 44 µM (inactive); in experiment [6] it was 31.1 µM (inactive). Moreover, the GI50 in experiment [7] is 38.8 µM (inactive); in experiment [8], > 100 µM (inactive); in experiment [20], 26.8 µM (inactive); in [9] it was > 100 µM (inactive); in experiment [10], 75.5 µM (inactive); in experiment [11], 86.1 µM (inactive). The GI50 in experiment [12] was > 100 µM (inactive); in experiment [13] it was > 100 µM (inactive); in experiment [14] it was > 100 µM (inactive); in experiment [15], > 100 µM (inactive); in experiment [16] it was 34.8 µM (inactive); in experiment [17], 33.8 µM (inactive).

`CC(C)c1ccc2c(c1)C=C1OC(=O)[C@]3(C)CCC[C@@]2(C)C13` (some centres not stated): the GI50 in experiment [1], in [2], in [3], in experiment [4], in experiment [5] and in [6] was > 100 µM (inactive) in each case. For the same molecule, the GI50 in experiment [7], in experiment [8], in [20], in experiment [9], in [10] and in [11] was > 100 µM (inactive) each time. The GI50 in experiment [13] is > 100 µM (inactive); in [14], > 100 µM (inactive); in experiment [15], > 100 µM (inactive); in experiment [16] it was > 100 µM (inactive); in experiment [17], > 100 µM (inactive); in [18], 44.2 µM (inactive).

In the case of `CCOC(=O)C1=C(c2ccccc2)C12N(Cc1ccccc1)C(=O)C2(c1ccccc1)c1ccccc1` (configuration not stated), the GI50 in [1] was 39.1 µM (inactive); in experiment [19], 20 µM (inactive); in experiment [3] it was 43.2 µM (inactive); in experiment [4] it was 25.5 µM (inactive); in [5], 75 µM (inactive); in experiment [6], > 100 µM (inactive). For the same molecule, the GI50 is 38.8 µM (inactive) in experiment [7]; 29.4 µM (inactive) in experiment [8]; 25.9 µM (inactive) in experiment [9]; 36.4 µM (inactive) in experiment [10]; 59.8 µM (inactive) in experiment [12]; 39.5 µM (inactive) in experiment [13]. Besides, the GI50 in [14] was 33.8 µM (inactive); in experiment [17], 47.9 µM (inactive); in experiment [18], 34.9 µM (inactive).

For `Cc1ccc(NC(=O)/C=C/c2ccccc2)c(C)c1`, the GI50 in [1] is > 100 µM (inactive); in experiment [2], 37.3 µM (inactive); in [3], > 100 µM (inactive); in experiment [4], > 100 µM (inactive); in experiment [5] it was > 100 µM (inactive); in experiment [6], > 100 µM (inactive). Also, the GI50 in [7] is 26.6 µM (inactive); in experiment [8] it was > 100 µM (inactive); in experiment [9], > 100 µM (inactive); in experiment [10] it was > 100 µM (inactive); in experiment [11], > 100 µM (inactive); in experiment [12], > 100 µM (inactive). In addition, the GI50 was > 100 µM (inactive) in experiment [13]; > 100 µM (inactive) in experiment [14]; > 100 µM (inactive) in experiment [15]; 74.5 µM (inactive) in [16]; 43.2 µM (inactive) in experiment [17]; > 100 µM (inactive) in [18].

Consider `CC(C)=CCc1c(O)ccc2c1OC1c3ccc(O)c(CC=C(C)C)c3OCC21` (configuration not stated), for which the GI50 in experiment [1] was > 38.8 µM (inactive); in experiment [2], 8.22 µM (inactive); in experiment [19], > 100 µM (inactive); in experiment [3] it was > 44.4 µM (inactive); in [7] it was 5.62 µM (inactive); in experiment [8], 10.2 µM (inactive). Also, the GI50 in experiment [20] is 8.09 µM (inactive); in [9] it was 17.3 µM (inactive); in experiment [10] it was 5.12 µM (inactive); in [11] it was 7.94 µM (inactive); in experiment [12], 13.9 µM (inactive); in experiment [13], 5.64 µM (inactive). For the same molecule, the GI50 in experiment [14] was 13.6 µM (inactive); in experiment [15], 11.2 µM (inactive); in experiment [17] it was 19.2 µM (inactive); in [18], 4.32 µM (inactive).

Turning to `CC1(CO)C(O)CCC2(C)C1CCC1CC3CC12CCC3(O)CO` (configuration not stated), the GI50 in [1] was 4.91 µM (inactive); in experiment [2], 4.84 µM (inactive); in experiment [19] it was 24.8 µM (inactive); in experiment [3], 6.5 µM (inactive); in experiment [7], > 64.6 µM (inactive); in experiment [8], > 100 µM (inactive). Further, the GI50 was 6.67 µM (inactive) in experiment [20]; > 100 µM (inactive) in experiment [9]; 2.39 µM (inactive) in [10]; 2.71 µM (inactive) in experiment [11]; > 36.9 µM (inactive) in experiment [12]; 0.789 µM (active) in experiment [13]. Moreover, the GI50 in [14] is > 88.3 µM (inactive); in experiment [15], > 100 µM (inactive); in [17] it was > 100 µM (inactive); in experiment [18] it was 0.433 µM (active).

On to `CC1(C)S[C@@H]2[C@H](NC(=O)CCC[C@@H](N)C(=O)O)C(=O)N2[C@H]1C(=O)O` [ADICILLIN], for which the GI50 in experiment [1] was > 50 µM (inactive); in experiment [2], > 19.9 µM (inactive); in experiment [19] it was > 50 µM (inactive); in [3], > 50 µM (inactive); in experiment [7], > 50 µM (inactive); in experiment [8] it was > 50 µM (inactive). Also, the GI50 is > 31.6 µM (inactive) in experiment [20]; > 50 µM (inactive) in experiment [9]; > 50 µM (inactive) in experiment [10]; > 50 µM (inactive) in [11]; 23.3 µM (inactive) in [12]; > 50 µM (inactive) in experiment [13]. In addition, the GI50 in experiment [14] is > 50 µM (inactive); in experiment [15], > 50 µM (inactive); in [17], > 41 µM (inactive); in experiment [18], > 50 µM (inactive).
